Experimental data published in patent publication US12156938B2, “Liposomes for targeting tumor-associated macrophages” (Universiteit Twente, priority 2018, dated 2024).

Legend:
4T1 breast tumor model [1] = assay: Efficacy of AS1517499-loaded liposomes on tumor growth in the 4T1 breast tumor model; type: in vivo, mice; settings: 8 mg/kg, intravenous route, twice weekly
Experimental: (§1) For efficacy analysis of AS1517499-loaded liposomes, 1×10^5 Luc-cells were injected into the mammary fat pad, and tumors were allowed to develop to a size of 100 mm^3. Thereupon, treatment with AS1517499-loaded liposomes (8 mg/kg, intravenous administrations, twice a week) was started. Before sacrifice, mice were injected with 2.5 mg of D-Luciferin (Perkin-Elmer, Waltham, MA) and were imaged after 15 minutes to detect bioluminescence signal using a Pearl Trilogy imager (LICOR).
Mouse 4T1-Luc cells were injected orthotopic into the mammary fat pad of BalbC mice. The mice were randomly assigned into five groups: a) treated with PBS as the vehicle group, b) treated with free AS, c) treated with AS-HSPC liposomes, d) treated with AS-PAzPC liposomes, e) treated with empty PAzPC liposomes. […] Since the loading of the AS1517499 was little in the liposomes, 8 mg/kg was injected, intravenous route, twice weekly.

4T1 breast tumor model [2] = assay: Effect of AS-loaded liposomes on pre-metastatic niche in liver and lungs (qPCR); type: in vivo, mice; settings: compared to the vehicle group
Experimental: as §1
TAMs display a number of pro-tumoral functions, including extracellular matrix remodeling, neoangiogenesis, suppression of adaptive immunity and facilitate tumor metastasis (Allavena et al. 2012 Exp. Immunol. 167, 195-205, doi:10.1111/j.1365-2249.2011.04515.x). […] As most of cancer related mortalities occur due to metastasis, the effect of AS-loaded liposomes on the pre-metastatic niche in the organs (liver and lungs) of the 4T1 breast tumor was examined using qPCR analysis (FIG. 9).

[3] = tested on: 4T1 orthotopic tumor model; settings: free AS1517499, 20 mg/kg; i.p route; cited from earlier work
RAW 264.7 macrophages = assay: Effect of MTP-PE on differentiated RAW 264.7 macrophages (qPCR); type: cell-based, murine
Experimental: (§2) Macrophages were differentiated as reported in [7]. Briefly, THP-1 cells were treated for 24 hours with 100 ng/ml of phorbol 12-myristate 13-acetate (PMA, Cayman Chemicals) to allow their attachment. The medium was replaced by medium containing 20 ng/ml IL-4 and IL-13 (Peprotech, London, UK) for M2 differentiation, or 20 ng/ml IFNγ (Peprotech) and 100 ng/ml LPS (Sigma Aldrich) for M1 differentiation. Cells were incubated with cytokines for 24 hours (gene expression on differentiation), and 72 hours (liposome uptake experiments). BMDMs were plated overnight with a density of 50,000 cells/ml. After 24 hours, medium was aspirated. Cells were incubated for 24 hours in complete RPMI medium containing IL-4 and IL-13 at 10 ng/ml (M2 differentiation) or LPS and IFN-γ at 100 and 10 ng/ml. In case of RAW264.7 cells, M1 macrophages were differentiated using 10 ng-mL murine recombinant IFNγ and 10 ng-mL LPS. M2 macrophages were differentiated using 10 ng-mL murine IL-4 and IL-13.
(§3) 0.5×10^6 RAW264.7/THP-1 cells were plated in 12-well plates, if applicable treated with respective cytokines for differentiation, and activated using PMA. Cells were then incubated with different liposomal preparations (50 μM) or differentiation cytokines for 24 hours. BMDM were differentiated as described above. After differentiation, cells were washed with PBS and then lysed using lysis buffer and total RNA was isolated using SV Total RNA Isolation System (Promega, Madison, WI). cDNA was prepared by using iScript cDNA synthesis kit (Bio-Rad, Hercules, CA) and qRT-PCR was performed with 10 ng of cDNA per reaction mixture using SYBR green assay (Bioline, London, UK). Reactions were measured using the CFX384 Real-Time PCR detection system (Bio-Rad). The threshold cycles (Ct) values were calculated and relative gene expression (ddCt method) was analyzed after normalization using the Rsp18 (THP-1) or Gapdh (RAW264.7/BMDM) house-keeping gene.
To study the effect of MTP-PE, murine macrophages RAW 264.7 were first differentiated with IFNγ and LPS for M1 and with IL-4 and IL-13 for M2 macrophages (TAM). […]

THP-1 macrophages [4] = assay: Effect of MTP-PE and IFNγ on differentiated THP-1 macrophages (qPCR); type: cell-based, human; settings: for DC-SIGN (M2 marker) expression in TAMs: second experiment, with or without IFNγ
Experimental: as §2, §3
Next, the effect of MTP-PE on differentiated human macrophages THP-1 was investigated.
(§4) (IL-1β and TNFα) in TAMs, which indicates the switch of M2 macrophages toward M1 phenotype (FIG. 12A). In the second experiment, IFNγ, a well-known inducer of M1 macrophage differentiation, was tested (Sica et al. 2012 J. Clin. Invest. 122, 787-795, doi:10.1172/JCI59643), and MTP-PE to understand the role of IFNγ potentiation effect on macrophage reprogramming.

THP-1 macrophages [5] = assay: Cell growth after 24-hour treatment of MTP-PE and IFNγ; type: cell-based, human; settings: IFNγ 20 ng/ml
Experimental: FIG. 12. In vitro effects of MTP-PE and IFNγ in differentiated THP-1 macrophages. qPCR analysis of macrophage differentiation with MTP-PE with or without IFNγ for M1 markers IL-1β, IL-6, TNFα and M2 markers for DC-SIGN. […] B) The cell growth was evaluated after 24-hour treatment of MTP-PE and IFNγ C) MTP-PE, in synergy with IFNγ activates tumoricidal properties by inducing more M1 markers. Bars represent mean+SEM, n=3 *p<0.05, **p<0.005, ***p<0.001.
as §4

[6] = increasing concentrations of MTP-PE

## NC(=O)c1cnc(NCCc2ccc(O)c(Cl)c2)nc1NCc1ccccc1 [AS1517499]
4T1 breast tumor model [1]
  Tumor volume/weight compared to the vehicle group: no difference in tumor volume/weight
4T1 breast tumor model [2]
  CD31, collagen I, periostin, fibronectin expression in liver samples: no statistically significant difference
[3]
  Premetastatic niche in liver: reduced premetastatic niche in liver
  Tumor volume compared to the vehicle group: inhibited tumor volume significantly

## muramyl tripeptide-phosphatidyl ethanolamine [MTP-PE]
RAW 264.7 macrophages; MTP-PE dose-dependent conc., in presence of IFNγ
  Cytokines (IL-1β, IL-6, TNFα) expression in M1 differentiation: increasing the cytokines (IL-1β, IL-6, TNFα) expression
RAW 264.7 macrophages; [6]
  M2 macrophage markers (MRC-1, ARG-1) in M2 macrophages: did not show any inhibition
  TNFα expression in M2-type macrophages: increased TNFα expression
THP-1 macrophages [4]; 1 and 10 ug/ml, first experiment
  DC-SIGN gene expression (M2 differentiation): reduced expression of DC-SIGN gene
THP-1 macrophages [4]; data not shown
  M1 type differentiation markers in presence of M1 cytokines: increased the M1 type differentiation markers
THP-1 macrophages [4]; first experiment
  M1 cytokine markers (IL-1β and TNFα) in TAMs: induced M1 cytokine markers
THP-1 macrophages [4]
  DC-SIGN (M2 marker) expression in TAMs: reduced the expression of DC-SIGN
THP-1 macrophages [5]
  Cell growth: no direct effect on the cell growth

B1: IFNγ: cytokine that activates inflammatory M1-type macrophages (protein, UniProt P01579 24-161, looked up)
Interferon gamma: QDPYVKEAENLKKYFNAGHSDVADNGTLFLGILKNWKEESDRKIMQSQIVSFYFKLFKNFKDDQSIQKSVETIKEDMNVKFFNSNKKKRDDFEKLTNYSVTDLNVQRKAIHELIQVMAELSPAAKTGKRKRSQMLFRG
THP-1 macrophages [4]
  DC-SIGN (M2 marker) expression in TAMs: increased expression of DC-SIGN
THP-1 macrophages [5]
  Cell growth: reduced the cell growth significantly
